Where two headings read alike, the source gives them in different places.
Columns and labels:
[1] = tested on: Pseudomonas aeruginosa efflux− (MB9799), IMP-1; type: cell-based; conditions: C, D serine β-lactamase inhibitor closely related to relebactam; for P. aeruginosa expressing IMP-1, efflux − (MB9799) MITC95: concentration restoring susceptibility to imipenem at 2 μg/mL in the presence of a class A
How it was run: (§1)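 PAO1 pair, broth microdilution; fixed β-lactam (imipenem/ceftazidime) at ~CLSI breakpoint + fixed class A/C BLI for AmpC; serial MBLi titration; endpoint = MBLi conc. restoring susceptibility; MB9798:MB9799 ratio = efflux liability.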

[2] = tested on: Pseudomonas aeruginosa efflux+ (MB9798), IMP-1; type: cell-based; parameters: Concentration of metallo-β-lactamase inhibitor which restores susceptibility of efflux + (MB9798) strain to imipenem: unit not given here; conditions: C, D serine β-lactamase inhibitor closely related to relebactam; for P. aeruginosa expressing IMP-1, efflux + (MB9798) MITC95: concentration restoring susceptibility to imipenem at 2 μg/mL in the presence of a class A
How it was run: as §1

[3] = target: NDM-1 (Klebsiella pneumoniae, UniProt C7C422); assay: biochemical; type: biochemical; conditions: fluorescence assay, CCF2-FA substrate, 1 pM enzyme, 2 hours at 25° C.; read-out: NDM-1 IC50
How it was run: (§2)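 Inhibitor was mixed with the metallo-β-lactamase and CCF2-FA. After 2 hours at 25° C, fluorescence of the coumarin–fluorescein cephalosporin substrate was read. IC50 was calculated with a 4-parameter fit.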

[4] = target: IMP-1 (Serratia marcescens, UniProt P52699); assay: biochemical; type: biochemical; conditions: CCF2-FA substrate, 2 pM enzyme, 2 hours at 25° C.
How it was run: as §2

[5] = target: VIM-1 (Pseudomonas aeruginosa (strain ATCC 15692 / DSM 22644 / CIP 104116 / JCM 14847 / LMG 12228 / 1C / PRS 101 / PAO1), UniProt A0A0F7KYQ8); assay: biochemical; conditions: CCF2-FA substrate, 30 pM enzyme, 2 hours at 25° C.
Protocol: Enzyme Activity: Determination of IC50
The Class B enzyme activities were measured in the presence of the test inhibitor in a fluorescence assay against a commercially available substrate consisting of a cephalosporin core linking 7-hydroxycoumarin to fluorescein (CCF2-FA). […] In a 384-well microplate, the test inhibitor was incubated with the metallo-β-lactamase enzyme and the substrate for 2 hours at 25° C. […] The IC50 value was determined from semi-logarithmic plots of enzyme inhibition versus inhibitor concentration, with a curve generated using a 4-parameter fit.

[6] = tested on: Serratia marcescens expressing IMP-1 (CL5741); type: cell-based; conditions: for Serratia marcescens MITC95: IMP-1 strain CL5741, with imipenem 1 μg/ml, 95% inhibition of growth; for Serratia marcescens expressing IMP-1 (CL5741) MITC95: with imipenem 1 μg/ml, 95% inhibition of bacterial growth
How it was run: (§3)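 Colonies grown overnight on blood agar at 35° C were suspended in saline, diluted 1:100 into 1.1×CAMHB and dispensed. Imipenem was added to 1 μg/ml, then test compound. After 22 hours to 24 hours at 35° C, absorbance was recorded.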

[7] = tested on: Escherichia coli expressing NDM-1 (CLB30005, CLB30016); type: cell-based; conditions: with imipenem 1 μg/ml; for Escherichia coli MITC95: NDM-1 strain, 95% inhibition of growth; for Escherichia coli expressing NDM-1 (CLB30016) MITC95: 95% inhibition of bacterial growth
How it was run: as §3

[8] = tested on: Klebsiella pneumoniae expressing VIM-1 (IHMA599644); type: cell-based; conditions: for Klebsiella pneumoniae MITC95: VIM-1 strain IHMA599644, with imipenem 1 μg/ml, 95% inhibition of growth; for Klebsiella pneumoniae expressing VIM-1 (IHMA599644) MITC95: with imipenem 1 μg/ml, 95% inhibition of bacterial growth
How it was run: as §3

[9] = fluorescence assay, read-out: IMP-1 IC50
[10] = fluorescence assay, read-out: VIM-1 IC50

NDM-1, sequence (C7C422 whole entry, looked up, species assumed): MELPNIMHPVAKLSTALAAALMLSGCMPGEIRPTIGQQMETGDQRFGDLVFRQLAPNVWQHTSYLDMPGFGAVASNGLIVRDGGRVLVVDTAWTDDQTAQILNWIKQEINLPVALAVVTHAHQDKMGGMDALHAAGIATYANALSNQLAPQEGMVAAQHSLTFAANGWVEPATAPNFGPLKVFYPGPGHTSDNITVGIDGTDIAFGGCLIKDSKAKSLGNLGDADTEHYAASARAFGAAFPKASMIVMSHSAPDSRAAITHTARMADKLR
IMP-1, sequence (P52699 whole entry, looked up, species assumed): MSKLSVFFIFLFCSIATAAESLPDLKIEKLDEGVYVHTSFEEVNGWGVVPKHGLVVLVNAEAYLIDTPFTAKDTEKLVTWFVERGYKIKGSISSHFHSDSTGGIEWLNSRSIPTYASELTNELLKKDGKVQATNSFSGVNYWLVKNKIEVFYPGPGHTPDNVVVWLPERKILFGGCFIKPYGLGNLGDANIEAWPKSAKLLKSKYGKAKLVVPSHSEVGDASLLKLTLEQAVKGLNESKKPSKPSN

SMILES	Concentration of metallo-β-lactamase inhibitor which restores susceptibility of efflux − (MB9799) strain to imipenem ([1]; efflux− MB9799, imipenem at 2 μg/mL, in the presence of a class A)	Concentration of metallo-β-lactamase inhibitor which restores susceptibility of efflux + (MB9798) strain to imipenem ([2]; efflux+ MB9798, imipenem at 2 μg/mL, in the presence of a class A)	IC50 [3]	IC50 [4, 9]	IC50 [5, 10]	Serratia marcescens MITC95 [6]	Escherichia coli MITC95 [7]	Klebsiella pneumoniae MITC95 [8]	P. aeruginosa expressing IMP-1, efflux − (MB9799) MITC95 [1]	P. aeruginosa expressing IMP-1, efflux + (MB9798) MITC95 [2]	Serratia marcescens expressing IMP-1 (CL5741) MITC95 [6]	Escherichia coli expressing NDM-1 (CLB30016) MITC95 [7]	Klebsiella pneumoniae expressing VIM-1 (IHMA599644) MITC95 [8]	IC50 ([5]; VIM-1 IC50, fluorescence assay)	IC50 ([4]; IMP-1 IC50, fluorescence assay)
Nc1ccc(-c2ccc(S(=O)(=O)N[C@H]3CNC[C@H]3N)c(S(N)(=O)=O)c2-c2nn[nH]n2)cn1 [Example 413]	1.563	1.563	0.248 nM	0.8 nM	0.3 nM	1.563 µM	0.7813 µM	3.125 µM	–	–	–	–	–	–	–
NC[C@H]1CCN(S(=O)(=O)c2ccc(-c3cccc4[nH]c(N)nc34)c(-c3nn[nH]n3)c2S(N)(=O)=O)C1 [Example 253, (R)-3-(2-amino-1H-benzo[d]imidazol-4-yl)-6-((3-(aminomethyl)pyrrolidin-1-yl)sulfonyl)-2-(2H-tetrazol-5-yl)benzenesulfonamide]	–	–	0.884 nM	2.68 nM	1.53 nM	0.7813 µM	1.563 µM	1.563 µM	0.7813 µM	1.563 µM	–	–	–	–	–
Nc1nc2c(-c3ccc(S(=O)(=O)NC4C[C@@H]5CN[C@H]4C5)c(S(N)(=O)=O)c3-c3nnn[nH]3)cccc2s1.O=CO (stereo partly drawn) [Example 119, 4-(2-aminobenzo[d[thiazol-4-yl)-N1-((1S,4R)-2-azabicyclo[2.2.1]heptan-6-yl)-3-(1H-tetrazol-5-yl)benzene-1,2-disulfonamide, formate salt]	–	–	0.0407 nM	0.223 nM	0.254 nM	–	–	–	–	–	–	–	–	–	–
Nc1nc2c(-c3ccc(S(=O)(=O)N4CC5C(N)C5C4)c(S(N)(=O)=O)c3-c3nnn[nH]3)cccc2s1.O=C(O)C(F)(F)F [Example 113, (1R,5S,6s)-3-((4-(2-aminobenzo[d]thiazol-4-yl)-2-sulfamoyl-3-(1H-tetrazol-5-yl)phenyl)sulfonyl)-3-azabicyclo[3.1.0]hexan-6-aminium 2,2,2-trifluoroacetate]	–	–	0.646 nM	–	0.773 nM	–	–	–	1.563 µM	1.563 µM	3.125 µM	1.563 µM	3.125 µM	–	–
Nc1nc2c(-c3ccc(S(=O)(=O)NCC(N)C(F)F)c(S(N)(=O)=O)c3-c3nnn[nH]3)cccc2s1.O=CO (centres unmarked) [Example 118, 3-(4-(2-aminobenzo[d]thiazol-4-yl)-2-sulfamoyl-3-(1H-tetrazol-5-yl)phenylsulfonamido)-1,1-difluoropropan-2-aminium formate]	–	–	0.026 nM	–	–	–	–	–	3.125 µM	12.5 µM	6.25 µM	25 µM	12.5 µM	0.289 nM	–
CC(C)(CN)NS(=O)(=O)c1ccc(-c2cccc3sc(N)nc23)c(-c2nnn[nH]2)c1S(N)(=O)=O.O=CO [Example 117, 2-(4-(2-aminobenzo[d]thiazol-4-yl)-2-sulfamoyl-3-(1H-tetrazol-5-yl)phenylsulfonamido)-2-methylpropan-1-aminium formate]	–	–	0.0126 nM	–	0.183 nM	–	–	–	1.563 µM	1.563 µM	3.125 µM	6.25 µM	3.125 µM	–	–
C[C@H](CN)NS(=O)(=O)c1ccc(-c2cccc3sc(N)nc23)c(-c2nnn[nH]2)c1S(N)(=O)=O [Example 72, (R)-4-(2-aminobenzo[d]thiazol-4-yl)-N^1-(1-aminopropan-2-yl)-3-(1H-tetrazol-5-yl)benzene-1,2-disulfonamide]	–	–	0.02 nM	–	–	–	–	–	–	–	1.563 µM	1.563 µM	3.125 µM	0.26 nM	0.27 nM
Nc1nc2c(-c3ccc(S(=O)(=O)NC[C@H]4CCCN4)c(S(N)(=O)=O)c3-c3nnn[nH]3)cccc2s1.O=CO [Example 126, (R)-2-((4-(2-aminobenzo[d]thiazol-4-yl)-2-sulfamoyl-3-(1H-tetrazol-5-yl)phenylsulfonamido)methyl)pyrrolidin-1-ium formate]	–	–	0.0569 nM	–	0.18 nM	–	–	–	1.563 µM	0.7813 µM	1.563 µM	1.563 µM	3.125 µM	–	–
Nc1nc2c(-c3ccc(S(=O)(=O)NC[C@@H]4CCCN4)c(S(N)(=O)=O)c3-c3nnn[nH]3)cccc2s1.O=CO [Example 125, (S)-2-((4-(2-aminobenzo[d]thiazol-4-yl)-2-sulfamoyl-3-(1H-tetrazol-5-yl)phenylsulfonamido)methyl)pyrrolidin-1-ium formate]	–	–	0.0465 nM	–	0.196 nM	–	–	–	1.563 µM	0.7813 µM	1.563 µM	1.563 µM	3.125 µM	–	–
NCc1nc2c(-c3ccc(S(=O)(=O)NC[C@@H]4CNCCN4)c(S(N)(=O)=O)c3-c3nn[nH]n3)cccc2[nH]1 [Example 311, (S)-4-(2-(aminomethyl)-1H-benzo[d]imidazol-4-yl)-N-(piperazin-2-ylmethyl)-3-(2H-tetrazol-5-yl)benzene-1,2-disulfonamide]	–	–	0.0986 nM	–	0.11 nM	1.563 µM	1.563 µM	3.125 µM	1.563 µM	1.563 µM	–	–	–	–	–
Nc1nc2c(-c3ccc(S(=O)(=O)N[C@H]4C[C@H](N)C4)c(S(N)(=O)=O)c3-c3nnn[nH]3)cccc2s1.O=C(O)C(F)(F)F [Example 98, (1r,3r)-3-(4-(2-aminobenzo[d]thiazol-4-yl)-2-sulfamoyl-3-(1H-tetrazol-5-yl)phenylsulfonamido)cyclobutanaminium 2,2,2-trifluoroacetate]	–	–	0.0365 nM	–	–	–	–	–	1.042 µM	0.7813 µM	1.563 µM	1.823 µM	2.604 µM	0.169 nM	–

Reference: patent US10221163B2 (priority 2015, dated 2019)
